Laboratory results taken from PubChem BioAssay (NCI).
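In this assay, cells in 96-well plates receive the compound at five concentrations for 48 hours. Endpoints are linearly interpolated between the surrounding concentrations. At the TGI there is no net growth.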

Experiments:
Experiment in all cases: growth of human tumour cells (NCI), 48 h
MDA-MB-231 breast = system: MDA-MB-231 breast
MCF7 breast = system: MCF7 breast
HOP-62 NSCLC = system: HOP-62 NSCLC
NCI-H23 lung = system: NCI-H23 lung
M14 melanoma = system: M14 melanoma
HT29 colon = system: HT29 colon
KM12 colon = system: KM12 colon
LOX IMVI melanoma = system: LOX IMVI melanoma
OVCAR-3 ovarian = system: OVCAR-3 ovarian
DU-145 prostate = system: DU-145 prostate
EKVX NSCLC = system: EKVX NSCLC
HCT-15 colon = system: HCT-15 colon
SF-295 CNS = system: SF-295 CNS
NCI-H226 lung = system: NCI-H226 lung
A498 renal = system: A498 renal
HS 578T breast = system: HS 578T breast
HOP-92 NSCLC = system: HOP-92 NSCLC
OVCAR-8 ovarian = system: OVCAR-8 ovarian
PC-3 prostate = system: PC-3 prostate
TK-10 renal = system: TK-10 renal
U251 CNS = system: U251 CNS
MDA-MB-435 = system: MDA-MB-435
786-0 renal = system: 786-0 renal
K-562 leukemia = system: K-562 leukemia
SR leukemia = system: SR leukemia
SK-OV-3 ovarian = system: SK-OV-3 ovarian
SF-539 CNS = system: SF-539 CNS
NCI/ADR-RES ovarian = system: NCI/ADR-RES ovarian
HL-60(TB) leukemia = system: HL-60(TB) leukemia
CCRF-CEM leukemia = system: CCRF-CEM leukemia
NCI-H522 lung = system: NCI-H522 lung
NCI-H460 lung = system: NCI-H460 lung
SK-MEL-28 melanoma = system: SK-MEL-28 melanoma
T-47D breast = system: T-47D breast
MDA-N = system: MDA-N
HCT-116 colon = system: HCT-116 colon
RXF 393 renal = system: RXF 393 renal
SK-MEL-5 melanoma = system: SK-MEL-5 melanoma
HCC-2998 colon = system: HCC-2998 colon
RPMI-8226 leukemia = system: RPMI-8226 leukemia
MOLT-4 leukemia = system: MOLT-4 leukemia
OVCAR-5 ovarian = system: OVCAR-5 ovarian
UO-31 renal = system: UO-31 renal
SW-620 colon = system: SW-620 colon
ACHN renal = system: ACHN renal
SK-MEL-2 melanoma = system: SK-MEL-2 melanoma
UACC-257 melanoma = system: UACC-257 melanoma
CAKI-1 renal = system: CAKI-1 renal
IGROV1 ovarian = system: IGROV1 ovarian
SF-268 CNS = system: SF-268 CNS
OVCAR-4 ovarian = system: OVCAR-4 ovarian
COLO 205 colon = system: COLO 205 colon
UACC-62 melanoma = system: UACC-62 melanoma
SN12C renal = system: SN12C renal
MALME-3M melanoma = system: MALME-3M melanoma
SNB-19 CNS = system: SNB-19 CNS
A549 NSCLC = system: A549 NSCLC
SNB-75 CNS = system: SNB-75 CNS

Question: Which results are given for `COc1ccc(C=C2C(=O)NC(=S)NC2=O)c2ccccc12`?
Answer: TGI (MDA-MB-231 breast): > 100 µM; TGI (MCF7 breast): > 100 µM; TGI (HOP-62 NSCLC): > 100 µM; TGI (NCI-H23 lung): > 100 µM; TGI (M14 melanoma): > 100 µM; TGI (HT29 colon): 77.3 µM; TGI (KM12 colon): > 100 µM; TGI (LOX IMVI melanoma): > 100 µM; TGI (OVCAR-3 ovarian): 75.7 µM; TGI (DU-145 prostate): 64.7 µM; TGI (EKVX NSCLC): > 100 µM; TGI (HCT-15 colon): > 100 µM; TGI (SF-295 CNS): > 100 µM; TGI (NCI-H226 lung): 0.7 µM; TGI (A498 renal): 0.479 µM; TGI (HS 578T breast): 60.9 µM; TGI (HOP-92 NSCLC): > 100 µM; TGI (OVCAR-8 ovarian): > 100 µM; TGI (PC-3 prostate): 83.3 µM; TGI (TK-10 renal): 58.2 µM; TGI (U251 CNS): 83.3 µM; TGI (MDA-MB-435): > 100 µM; TGI (786-0 renal): > 100 µM; TGI (K-562 leukemia): > 100 µM; TGI (SR leukemia): 87.1 µM; TGI (SK-OV-3 ovarian): > 100 µM; TGI (SF-539 CNS): 57.7 µM; TGI (NCI/ADR-RES ovarian): > 100 µM; TGI (HL-60(TB) leukemia): 52 µM; TGI (CCRF-CEM leukemia): > 100 µM; TGI (NCI-H522 lung): > 100 µM; TGI (NCI-H460 lung): > 100 µM; TGI (SK-MEL-28 melanoma): > 100 µM; TGI (T-47D breast): > 100 µM; TGI (MDA-N): 40.6 µM; TGI (HCT-116 colon): > 100 µM; TGI (RXF 393 renal): 51.1 µM; TGI (SK-MEL-5 melanoma): > 100 µM; TGI (HCC-2998 colon): > 100 µM; TGI (RPMI-8226 leukemia): > 100 µM; TGI (MOLT-4 leukemia): > 100 µM; TGI (OVCAR-5 ovarian): > 100 µM; TGI (UO-31 renal): > 100 µM; TGI (SW-620 colon): > 100 µM; TGI (ACHN renal): > 100 µM; TGI (SK-MEL-2 melanoma): 66.5 µM; TGI (UACC-257 melanoma): 41.5 µM; TGI (CAKI-1 renal): > 100 µM; TGI (IGROV1 ovarian): > 100 µM; TGI (SF-268 CNS): > 100 µM; TGI (OVCAR-4 ovarian): > 100 µM

Question: With `COC(=O)CNC(=O)CCSc1nnc(COc2ccc(Cl)cc2)n1-c1ccccc1` as the compound, how does the TGI (MDA-MB-231 breast) read?
Answer: The TGI was 49.1 µM.

Question: And the TGI (MCF7 breast)?
Answer: The TGI was > 100 µM.

Question: What about the TGI (HOP-62 NSCLC) of the same compound?
Answer: Its TGI is > 100 µM.

Question: And the TGI (COLO 205 colon)?
Answer: Its TGI is > 100 µM.

Question: What about the TGI (NCI-H23 lung) of the same compound?
Answer: Its TGI is > 100 µM.

Question: And the TGI (M14 melanoma)?
Answer: The TGI was 65.5 µM.

Question: And the TGI (HT29 colon)?
Answer: Its TGI is > 100 µM.

Question: And the TGI (KM12 colon)?
Answer: Its TGI is > 100 µM.

Question: And the TGI (LOX IMVI melanoma)?
Answer: Its TGI is > 100 µM.

Question: And the TGI (OVCAR-3 ovarian)?
Answer: Its TGI is > 100 µM.

Question: What about the TGI (DU-145 prostate) of the same compound?
Answer: Its TGI is 51.5 µM.

Question: What about the TGI (EKVX NSCLC) of the same compound?
Answer: The TGI was > 100 µM.

Question: And the TGI (HCT-15 colon)?
Answer: The TGI was > 100 µM.

Question: What about the TGI (SF-295 CNS) of the same compound?
Answer: Its TGI is > 100 µM.

Question: What about the TGI (NCI-H226 lung) of the same compound?
Answer: Its TGI is 84.6 µM.

Question: And the TGI (A498 renal)?
Answer: Its TGI is > 100 µM.

Question: And the TGI (UACC-62 melanoma)?
Answer: Its TGI is 44 µM.

Question: And the TGI (HOP-92 NSCLC)?
Answer: The TGI was > 100 µM.

Question: What about the TGI (OVCAR-8 ovarian) of the same compound?
Answer: The TGI was > 100 µM.

Question: What about the TGI (PC-3 prostate) of the same compound?
Answer: The TGI was > 100 µM.

Question: What about the TGI (TK-10 renal) of the same compound?
Answer: Its TGI is 35 µM.

Question: And the TGI (U251 CNS)?
Answer: Its TGI is > 100 µM.

Question: And the TGI (MDA-MB-435)?
Answer: The TGI was 60.4 µM.

Question: And the TGI (786-0 renal)?
Answer: The TGI was 42.6 µM.

Question: And the TGI (K-562 leukemia)?
Answer: Its TGI is > 100 µM.

Question: What about the TGI (SK-OV-3 ovarian) of the same compound?
Answer: The TGI was > 100 µM.

Question: And the TGI (SF-539 CNS)?
Answer: Its TGI is > 100 µM.

Question: What about the TGI (NCI/ADR-RES ovarian) of the same compound?
Answer: Its TGI is > 100 µM.

Question: And the TGI (HL-60(TB) leukemia)?
Answer: The TGI was > 100 µM.

Question: What about the TGI (CCRF-CEM leukemia) of the same compound?
Answer: The TGI was > 100 µM.

Question: What about the TGI (NCI-H522 lung) of the same compound?
Answer: The TGI was 33.6 µM.

Question: And the TGI (NCI-H460 lung)?
Answer: Its TGI is > 100 µM.

Question: What about the TGI (SK-MEL-28 melanoma) of the same compound?
Answer: Its TGI is 56.9 µM.

Question: And the TGI (T-47D breast)?
Answer: The TGI was > 100 µM.

Question: And the TGI (MDA-N)?
Answer: The TGI was 37.6 µM.

Question: And the TGI (HCT-116 colon)?
Answer: The TGI was > 100 µM.

Question: And the TGI (RXF 393 renal)?
Answer: The TGI was 67.5 µM.

Question: And the TGI (SN12C renal)?
Answer: Its TGI is 45.9 µM.

Question: What about the TGI (HCC-2998 colon) of the same compound?
Answer: The TGI was > 100 µM.

Question: And the TGI (MALME-3M melanoma)?
Answer: The TGI was 58.3 µM.

Question: And the TGI (MOLT-4 leukemia)?
Answer: The TGI was > 100 µM.

Question: What about the TGI (OVCAR-5 ovarian) of the same compound?
Answer: The TGI was > 100 µM.

Question: What about the TGI (UO-31 renal) of the same compound?
Answer: The TGI was > 100 µM.

Question: And the TGI (SW-620 colon)?
Answer: Its TGI is > 100 µM.

Question: And the TGI (ACHN renal)?
Answer: The TGI was > 100 µM.

Question: And the TGI (SK-MEL-2 melanoma)?
Answer: The TGI was 48.8 µM.

Question: What about the TGI (SNB-19 CNS) of the same compound?
Answer: Its TGI is > 100 µM.

Question: What about the TGI (A549 NSCLC) of the same compound?
Answer: Its TGI is > 100 µM.

Question: What about the TGI (UACC-257 melanoma) of the same compound?
Answer: Its TGI is 38.8 µM.

Question: What about the TGI (CAKI-1 renal) of the same compound?
Answer: Its TGI is 26.7 µM.

Question: And the TGI (IGROV1 ovarian)?
Answer: Its TGI is 98.7 µM.

Question: And the TGI (SF-268 CNS)?
Answer: Its TGI is 48.5 µM.

Question: And the TGI (SNB-75 CNS)?
Answer: The TGI was 40.7 µM.

Question: What about the TGI (OVCAR-4 ovarian) of the same compound?
Answer: Its TGI is > 100 µM.
